For one molecule, HO1 expression results are on record in US20210379197A1, “DUAL-TARGETING LIPID-POLYMER HYBRID NANOPARTICLES” (IUCF-HYU (INDUSTRY-UNIVERSITY COOPERATION FOUNDATION …, priority 2020, published 2021).

The subject of experiment [1] is HO1. As to the kind of experiment: Daunorubicin-responsive HO1 upregulation, THP-1 (Western blot). It counts as cell-based, human. Particulars: THP-1, various concentrations of DNR, 24 h (FIG. 9a). How it is done:
(§1) THP-1 and U937 cells (4×10^5 cells mL^−1) were seeded and cultured in complete medium with various concentrations of DNR for 24 h. The cells were lysed using RIPA buffer and total protein was used for immunodetection by using anti-human HO1 and kactin antibodies (Cell Signaling Technology, Danvers, Mass., USA).
In general terms: A western blot detects proteins with antibodies after separation by electrophoresis.

Experiment [2] relates to HO1. In words: Daunorubicin-responsive HO1 upregulation, U937 (Western blot). The experiment is classed as cell-based, human. Particulars: U937, various concentrations of DNR, 24 h (FIG. 9a). How it is done:
as §1

In the case of `COc1cccc2c1C(=O)c1c(O)c3c(c(O)c1C2=O)C[C@@](O)(C(C)=O)C[C@@H]3O[C@H]1C[C@H](N)[C@H](O)[C@H](C)O1` [DNR, daunorubicin], the HO1 expression entry in experiment [1] and in experiment [2] was “overexpressed” each time.
